Experimental data published in patent publication US20020016346A1, “Method for enhancing outflow of aqueous humor in treatment of glaucoma” (The Regents University of California, a California …, priority 1994, published 2002).
Blank lines part the entries; values can stand above or below the molecule they belong to.

Legend:
[1] = test system: bovine TM cells; test: TM cell volume by electronic cell sizing (Coulter Counter); assay type: cell-based; conditions: 30 minute exposure; bumetanide 10 μM, ethacrynic acid 1 mM; versus Hepes MEM control
Description: By the second method, TM cells were trypsinized briefly in Ca-free medium, then rinsed with medium containing trypsin inhibitor and suspended in Hepes MEM. Mean cell volumes were then analyzed by electronic cell sizing on a Coulter Counter™ […] (Model ZM), with channelizer (C256), using at least 50,000 cells per data point and an orifice diameter of 140 μm. Aliquots of suspended cells were diluted into Hepes MEM containing the tonicity and/or agents to be evaluated. Mean cell volumes of each suspension aliquot were followed over time, starting at 1 minute after addition of cells to the assay media. Cell suspensions were maintained at 37° C. throughout the assay period. Absolute volumes (picoliters/cell) were calculated from distribution curves of cell diameter, using a standard curve generated by polystyrene latex beads of known diameter.
In order to determine whether the Na—K—Cl cotransporter of TM cells may play a role in restoration of intracellular volume following hypertonicity-induced cell shrinkage, we evaluated the effect of hypertonicity on TM cell volume and Na^+—K^+—2Cl^− cotransport activity. […] The intracellular volume of the cells then increased over a slower time course, with volume recovering to approximately 84% by 33 minutes as shown in FIG. 3A.

[2] = target: T1, Na—K—Cl cotransport (Bos taurus, UniProt F1MS08); test: K influx (86Rb) in bovine TM cell monolayers; assay type: cell-based; conditions: bovine TM cells
T1 sequence (F1MS08 1-1204): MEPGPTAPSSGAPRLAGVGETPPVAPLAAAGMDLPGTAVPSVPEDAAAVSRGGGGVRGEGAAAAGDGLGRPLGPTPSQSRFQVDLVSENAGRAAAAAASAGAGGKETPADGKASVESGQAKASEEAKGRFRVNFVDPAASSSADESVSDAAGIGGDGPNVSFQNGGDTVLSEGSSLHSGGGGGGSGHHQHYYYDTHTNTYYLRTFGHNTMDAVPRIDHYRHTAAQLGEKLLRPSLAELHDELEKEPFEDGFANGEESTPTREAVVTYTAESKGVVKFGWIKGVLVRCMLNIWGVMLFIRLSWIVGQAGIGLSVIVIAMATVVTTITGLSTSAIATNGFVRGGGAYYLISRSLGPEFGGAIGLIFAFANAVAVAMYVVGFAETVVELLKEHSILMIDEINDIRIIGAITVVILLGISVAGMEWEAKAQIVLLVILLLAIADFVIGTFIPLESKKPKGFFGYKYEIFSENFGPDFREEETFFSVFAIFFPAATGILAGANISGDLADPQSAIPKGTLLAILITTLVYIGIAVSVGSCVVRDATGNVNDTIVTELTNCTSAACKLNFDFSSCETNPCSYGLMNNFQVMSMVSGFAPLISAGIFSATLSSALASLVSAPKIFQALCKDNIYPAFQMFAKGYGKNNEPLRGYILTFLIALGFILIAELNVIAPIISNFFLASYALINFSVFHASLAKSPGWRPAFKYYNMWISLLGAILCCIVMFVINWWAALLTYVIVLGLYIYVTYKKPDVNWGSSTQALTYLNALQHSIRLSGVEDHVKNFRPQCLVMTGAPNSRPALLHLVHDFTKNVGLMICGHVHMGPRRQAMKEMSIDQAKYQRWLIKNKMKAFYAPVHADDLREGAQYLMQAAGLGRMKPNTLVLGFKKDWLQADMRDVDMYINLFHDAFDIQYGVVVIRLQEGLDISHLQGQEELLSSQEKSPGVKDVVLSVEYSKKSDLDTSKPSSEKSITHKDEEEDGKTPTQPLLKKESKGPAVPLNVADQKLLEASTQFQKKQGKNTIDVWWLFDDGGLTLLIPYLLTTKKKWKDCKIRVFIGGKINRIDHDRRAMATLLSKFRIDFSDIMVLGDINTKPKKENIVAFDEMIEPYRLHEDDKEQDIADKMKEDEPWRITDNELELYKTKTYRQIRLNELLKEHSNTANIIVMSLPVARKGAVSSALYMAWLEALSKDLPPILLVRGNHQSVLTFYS
Description: (§1) Details of this method have been published previously (O'Donnell, M. E., supra, 1989). Briefly, bovine or human TM cell monolayers on 24 well plates were equilibrated for 10 minutes at 37° C. in a Hepes-buffered minimal essential medium (MEM) containing (in mM): 144 Na, 147 Cl, 5.8 K, 1.2 Ca, 4.2 HCO3, 0.4 H2PO4, […], 0.4 SO4, 5.6 glucose and 20 Hepes. […] The assay medium also contained ^86Rb (1 μCi/ml) (Dupont New England Nuclear, Boston, Mass.). The assay was terminated by rinsing the wells with ice-cold isotonic MgCl2, then extracting the contents with 0.2% sodium dodecyl sulfate (SDS), and determining the amount of radioactive contents by liquid scintillation. Osmolarities of all preincubation and assay media were verified by osmometry (Model 3W2, Advanced Instruments, Norwood, Mass.).
The effects of hormones, neurotransmitters and second messengers on Bumetanide-sensitive K influx of bovine trabecular meshwork cells were assessed using the procedures of Example 1. […] The control is the Hepes-buffered medium containing Na, K, Cl, CA and other ions as described in Example 1B. […] The data represent the mean values±SEM of quadruplicate determinations from two experiments.

[3] = target: T2, Na—K—Cl cotransport (Homo sapiens, UniProt P55011); test: K influx (86Rb) in human TM cell monolayers; assay type: cell-based; conditions: human TM cells, 1 mM ethacrynic acid
T2 construct: bovine or human TM cell monolayers on 24 well plates; endogenous in cells; host or cells: primary cultured human trabecular meshwork cells
T2 sequence (P55011 1-1212): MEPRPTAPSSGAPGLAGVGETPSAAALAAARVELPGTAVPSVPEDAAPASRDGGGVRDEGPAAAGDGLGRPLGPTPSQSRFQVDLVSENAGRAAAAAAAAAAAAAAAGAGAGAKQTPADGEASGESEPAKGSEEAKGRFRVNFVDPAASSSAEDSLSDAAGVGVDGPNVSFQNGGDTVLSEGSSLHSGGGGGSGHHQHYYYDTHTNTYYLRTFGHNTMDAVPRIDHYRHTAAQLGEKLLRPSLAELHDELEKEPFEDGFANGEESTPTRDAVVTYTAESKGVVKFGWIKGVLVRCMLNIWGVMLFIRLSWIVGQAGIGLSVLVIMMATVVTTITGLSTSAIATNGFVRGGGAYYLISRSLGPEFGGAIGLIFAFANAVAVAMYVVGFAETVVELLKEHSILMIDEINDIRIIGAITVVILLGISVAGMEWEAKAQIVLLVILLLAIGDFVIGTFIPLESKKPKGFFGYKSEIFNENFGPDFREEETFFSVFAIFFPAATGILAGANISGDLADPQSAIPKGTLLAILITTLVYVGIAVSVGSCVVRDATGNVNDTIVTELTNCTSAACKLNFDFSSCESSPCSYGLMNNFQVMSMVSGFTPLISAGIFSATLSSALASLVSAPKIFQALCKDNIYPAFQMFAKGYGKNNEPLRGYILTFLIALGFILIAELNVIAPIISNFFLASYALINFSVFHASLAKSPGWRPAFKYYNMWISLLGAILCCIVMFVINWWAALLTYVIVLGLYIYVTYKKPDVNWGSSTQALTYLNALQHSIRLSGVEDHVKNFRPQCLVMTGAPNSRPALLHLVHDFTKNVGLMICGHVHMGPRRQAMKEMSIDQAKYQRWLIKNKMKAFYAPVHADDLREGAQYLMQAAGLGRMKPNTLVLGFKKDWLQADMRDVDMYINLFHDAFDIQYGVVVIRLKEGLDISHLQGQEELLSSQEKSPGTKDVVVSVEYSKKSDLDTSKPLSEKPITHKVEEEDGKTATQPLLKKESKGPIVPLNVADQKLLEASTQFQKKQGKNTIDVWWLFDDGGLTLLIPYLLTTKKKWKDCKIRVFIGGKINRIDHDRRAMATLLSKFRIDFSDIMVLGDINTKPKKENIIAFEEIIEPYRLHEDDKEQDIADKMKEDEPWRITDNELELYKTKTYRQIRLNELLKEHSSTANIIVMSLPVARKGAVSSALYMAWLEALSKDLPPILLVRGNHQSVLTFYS
Description: as §1

[4] = test system: eye of a rabbit; test: Intra-ocular pressure in rabbits after subconjunctival injection; assay type: in vivo
Description: Male albino New Zealand rabbits weighing≧2 Kg were used for in vivo experiments performed under various active animal use protocols approved by the Institutional Animal Care and Use Committee at UC Davis. Animals were sedated with an intravenous dose of Napentabarbitol, 1-2 mg/Kg to permit their handling and frequent measurement of intra-ocular pressure (IOP). Topical anesthesia consisting of Proparacaine HCl (Alcaine™) was used for IOP measurements. A pneumatonometer (Mentor O & O Classic Model 30 Penumatonometer™, Norwell, Mass.) calibrated to a known (25 mmHg) pressure prior to each experiment was used for all IOP measurements. This model of Pneumatonometer provides a readout of standard deviation of each measurement; only measurements with a standard deviation of≦1 mmHg were accepted and most were less than 0.5 mmHg. Following sedation, IOP measurements were carried out over at least 30 minutes to assure that a stable baseline IOP was present.
Drugs and/or vehicle was administered to one eye of each animal via subconjunctival injection in order to bypass any barriers to drug penetration, such as an intact corneal and conjunctival epithelium and to achieve rapid and high concentrations of drug, bypassing epithelial barriers. The contralateral eye treated only with vehicle served as a control for each animal. Two syringes were prepared for each experiment, one containing drug and vehicle, the other containing only vehicle. […] Injections raised a prominent bleb, confirming subconjunctival placement of the drug or vehicle. This bleb then smoothed out over about ten minutes, indicating diffusion of the drug or vehicle throughout the subconjunctival space.
Measurements of intra-ocular pressure were taken at various intervals following the subconjunctival administration of the drug and/or vehicle. IOP in both eyes fluctuated over time reflecting the level of anesthesia. During the course of the experiment, the animal handlers and investigators were masked as to which eve had received the drug or control injection.

[5] = VP 100 nM, NE 10 μM, Ach 1 μM, cAMP 50 μM, cGMP 50 μM, A23187 1 μM, PMA 10 nM, Ca-free medium plus 5 μM BAPTA-AM, control 25.6 ± 0.71

SMILES: C=C(CC)C(=O)c1ccc(OCC(=O)O)c(Cl)c1Cl [ethacrynic acid]
intracellular volume [1]: significant reduction | BUMETANIDE-SENSITIVE K INFLUX ([2]; 1 mM ethacrynic acid): abolished | BUMETANIDE-SENSITIVE K INFLUX [3]: abolished

SMILES: NC(=O)CC[C@@H]1NC(=O)[C@H](Cc2ccccc2)NC(=O)[C@H](Cc2ccc(O)cc2)NC(=O)[C@@H](N)CSSC[C@@H](C(=O)N2CCC[C@H]2C(=O)N[C@@H](CCCN=C(N)N)C(=O)NCC(N)=O)NC(=O)[C@H](CC(N)=O)NC1=O [VP, vasopressin]
BUMETANIDE-SENSITIVE K INFLUX [2, 5]: 40.4 ± 1.05 μmol/g protein/min

SMILES: NS(=O)(=O)c1cc(C(=O)O)c(NCc2ccco2)cc1Cl [furosemide]
time after injection of significant drop in relative IOP ([4]; 0.1 cc of 100 μM furosemide subconjunctival): 25 min | maximal inhibition (relative IOP) ([4]; 0.1 cc of 100 μM furosemide subconjunctival, experiment ended at 45 minutes): 12.4%

SMILES: CC(=O)OCOC(=O)CN(CC(=O)OCOC(C)=O)c1ccccc1OCCOc1ccccc1N(CC(=O)OCOC(C)=O)CC(=O)OCOC(C)=O [Ca-free, 1,2-bis (o-aminophenoxy)ethane-N,N,N′,N-tetraacetic acid acetoxymethyl ester]
BUMETANIDE-SENSITIVE K INFLUX [2, 5]: 4.9 ± 1.06 μmol/g protein/min

BUMETANIDE-SENSITIVE K INFLUX [2, 5]: 19.7 ± 0.74 μmol/g protein/min
SMILES: Nc1nc2c(nc(Br)n2[C@@H]2O[C@@H]3COP(=O)(O)O[C@H]3[C@H]2O)c(=O)[nH]1 [cGMP, 8-bromo-cyclic GMP]

SMILES: NS(=O)(=O)c1cc(C(=O)O)cc(NCc2ccccc2)c1Oc1ccccc1 [benzmetanide]
time after which significant reduction of IOP was observed ([4]; 0.1 cc of 7.5 μM benzmetanide subconjunctival): 15 min | decrease in IOP ([4]; 0.1 cc of 7.5 μM benzmetanide subconjunctival, after 50 minutes, relative to contralateral control eye): 24%

SMILES: Cc1cccc(Nc2ccncc2S(=O)(=O)NC(=O)NC(C)C)c1 [torasemide]
IOP-lowering effect ([4]; 0.1 cc of 1 μM torasemide subconjunctival): time coarse and magnitude similar to that seen with bumetanide | average IOP lowering effect ([4]; average of two experiments, FIG. 6): over 20%
